Data published in patent US12653914B2, “Compounds for fast and efficient click release” (priority 2019, dated 2026).
Where two headings read alike, the source gives them in different places.

Legend:
[1] = Release of constructs (C^A) from TCO triggers with tetrazines, HPLC-MS/PDA; conditions: for Time point and release %: MeCN/PBS
Method: In another experiment, the release of TCO triggers was evaluated with a range of tetrazines. The constructs to be released included the drug doxorubicin, and methylamine as a model C^A. TCO-C^A conjugates (10 μL, 25 mM in DMSO) were diluted with MeCN ([…]) and PBS ([…]). Next, a solution of the tetrazine activator (20 μL 25 mM in DMSO) was added, and the release was evaluated by HPLC-MS/PDA. The results in Table 6 show complete C^A release in 5 min from all TCO triggers with all tested activators. Importantly, no release was observed from 1.42 and 1.62 upon reaction with 2.18, which supports Formula (19), wherein an amine being Y^T1, Y^T2 or Y^T3 cannot be bound to a carbonyl.

[2] = Dye (AF594) release efficiency from TCO-C^A conjugates with tetrazine activators, HPLC endpoint; conditions: 25 μM TCO, 50 μM tetrazine, PBS 37° C., 48 h, n = 2, ±1%
Method: 1.15 and 1.72 (as control without an Y^T1 group) were reacted at a concentration of 25 μM with various tetrazine activators (50 μM) in PBS (DMSO content <1%) at 37° C. Samples were analyzed by HPLC (UV and fluorescence detection; 10-100% MeCN in water with 2.5 mM NH4OAc, pH 8.4) after 48 h to obtain endpoint data for the overall dye release efficiency (Table 5). […] Importantly, highly reactive tetrazines that normally give low release yields, now give quantitative release. Compare with [Versteegen et al., Angew. Chem. Int. Ed. 2013, 52, 14112-14116, Sarris et al., Chem Eur J 2018, 24, 18075-18081].

[3] = Second order rate constant, TCO derivatives with tetrazine 2.18, pseudo-first order, UV spectroscopy in MeCN; conditions: reaction with 2.18 in MeCN at 20° C.; estimated from k1′
Method: Second order rate constant for the reaction between TCO derivatives and tetrazine 2.18 was determined under pseudo-first order conditions in MeCN at 20° C. by UV spectroscopy. A cuvette was filled with MeCN (3 mL) and equilibrated at 20° C. A solution of 2.18 (20 μL, 25 mM in DMSO) was added, followed by a solution of the TCO (5 μL 25 mM in DMSO). The absorption at 540 nm was monitored. The pseudo-first order reaction constant k1′ was calculated from the half-life of the decrease of this absorption, and the second order rate constant k2 was estimated from k1′ and the initial concentration of tetrazine: k2=k1′/c.

[4] = Second order rate constants, TCO with tetrazine activators, stopped-flow spectrophotometry in PBS; conditions: PBS at 37° C., 25 μM tetrazine, 50 μM TCO
Method: Second order rate constants for the reaction of tetrazines activators with 1.13 and 1.71 were determined using a SX20 stopped-flow spectrophotometer from Applied Photophysics. Measurements were performed at 37° C. with 25 μM tetrazine and 50 μM TCO in PBS, in triplicates, monitored at 535 nm. Data was analyzed using GraphPad Prism. Second order rate constants were determined from nonlinear fitting of the absorbance vs. time curves to the second order rate equation. […] Importantly, 2.17 and 2.18 are very reactive, but afford low release yields with TCO triggers that are not part of this invention (i.e. 1.71) [Versteegen et al., Angew. Chem. Int. Ed. 2013, 52, 14112-14116].

[5] = 10 min, tetrazine 2.20, released payload doxorubicin
[6] = 5 min, tetrazine 2.18, released payload dimethylamine

## COc1cccc2c1C(=O)c1c(O)c3c(c(O)c1C2=O)C[C@@](O)(C(=O)CO)C[C@@H]3O[C@@H]1C[C@H](NC(=O)O[C@@H]2/C=C/CCNCC2)[C@H](O)[C@H](C)O1 [Compound 1.65, TCO-doxorubicin]
[1]; [5]
  Time point and release %: 10 min: 100%

## TCO-PEG2-AF594 [Compound 1.15]
[2]; activator 2.10
  Release (%) of fluorescent dye (AF594): 99%
[2]; activator 2.11
  Release (%) of fluorescent dye (AF594): 99%
[2]; activator 2.12
  Release (%) of fluorescent dye (AF594): 92%
[2]; activator 2.13
  Release (%) of fluorescent dye (AF594): 99%
[2]; activator 2.14
  Release (%) of fluorescent dye (AF594): 99%
[2]; activator 2.16
  Release (%) of fluorescent dye (AF594): 92%
[2]; activator 2.17
  Release (%) of fluorescent dye (AF594): 96%
[2]; activator 2.18
  Release (%) of fluorescent dye (AF594): 99%
[2]; activator 2.19
  Release (%) of fluorescent dye (AF594): 99%
[2]; activator 2.6
  Release (%) of fluorescent dye (AF594): 93%
[2]; activator 2.9
  Release (%) of fluorescent dye (AF594): 98%

## COC(=O)[C@]1(O)CC/C=C/[C@H](OC(=O)N(C)c2ccc([C@@H](O)C(=O)O)cc2)CC1 [Compound 1.19, 2-Hydroxy-2-{4-[({[(1R,2E,6S)-6-hydroxy-6-(methoxycarbonyl)cyclooct-2-en-1-yl]oxy}carbonyl)(methyl)amino]phenyl}acetic acid]
[3]
  k2: 134 M⁻¹ s⁻¹
[1]; 5 min, tetrazines 2.1, 2.3, 2.18 (for all tested activators), released payload 2-hydroxy-2-[4-(methylamino)phenyl]acetic acid
  Time point and release %: 5 min: 100%

## CNC(=O)C[C@@H]1CC[C@H](OC(=O)N(C)C)/C=C/C[C@H]1O (relative stereo) [Compound 1.70, (rel-1S,5R,6S,E)-5-Hydroxy-6-(2-(methylamino)-2-oxoethyl)cyclooct-2-en-1-yl dimethylcarbamate]
[1]; [6]
  Time point and release %: 5 min: 100%

## C[Si](C)(C)CCOC(=O)N1CC/C=C/C(O)CC1 (stereo not drawn) [Compound 1.60, 2-(Trimethylsilyl)ethyl (E)-4-hydroxy-3,4,7,8-tetrahydroazocine-1(2H)-carboxylate]
[3]
  k2: 277 M⁻¹ s⁻¹

## CN(C)C(=O)O[C@@H]1/C=C/CCN(C(=O)OCC[Si](C)(C)C)CC1 (racemic) [Compound 1.62, 2-(Trimethylsilyl)ethyl (S,E)-4-((dimethylcarbamoyl)oxy)-3,4,7,8-tetrahydroazocine-1(2H)-carboxylate]
[3]
  k2: 80 M⁻¹ s⁻¹
[1]
  release upon reaction with 2.18: no release

## COC(=O)[C@H]1CC[C@@H](OC(=O)N(C)C)/C=C/C[C@@H]1NC(=O)OCC[Si](C)(C)C [Compound 1.42, Methyl (1S,2S,4E,6R)-6-((dimethylcarbamoyl)oxy)-2-(((2-(trimethylsilyl)ethoxy)carbonyl)amino)cyclooct-4-ene-1-carboxylate]
[1]; tetrazine 2.18, amine bound to a carbonyl (protected)
  release upon reaction with 2.18: no release

## COC(=O)[C@H]1CC[C@@H](OC(=O)N[C@H]2C[C@@H](OC3C[C@](O)(C(=O)CO)Cc4c(O)c5c(c(O)c43)C(=O)c3c(OC)cccc3C5=O)O[C@@H](C)[C@H]2O)/C=C/C[C@@H]1N (stereo partly drawn) [Compound 1.45, TCO-doxorubicin]
[1]; [5]
  Time point and release %: 10 min: 100%

## O=C(NCCOCCOCCOCCO)O[C@H]1/C=C/CCCCC1 [Compound 1.71, reference compound]
[4]; activator 2.12
  k2: 280 ± 30 M⁻¹ s⁻¹
[4]; activator 2.17
  k2: 10300 ± 1200 M⁻¹ s⁻¹
[4]; activator 2.18
  k2: 9300 ± 500 M⁻¹ s⁻¹
[4]; activator 2.9
  k2: 80 ± 10 M⁻¹ s⁻¹

## C[Si](C)(C)CCOC(=O)N[C@H]1C/C=C/[C@H](O)CC[C@H]1CO [Compound 1.51, 2-(trimethylsilyl)ethyl N-[(1S,3E,5R,8R)-5-hydroxy-8-(hydroxymethyl)cyclooct-3-en-1-yl]carbamate]
[3]
  k2: 104 M⁻¹ s⁻¹

## COC(=O)[C@H]1CC[C@@H](O)/C=C/C[C@@H]1NC(=O)OCC[Si](C)(C)C [Compound 1.40, Methyl (1S,2S,4E,6R)-6-hydroxy-2-({[2-(trimethylsilyl)ethoxy]carbonyl}amino)cyclooct-4-ene-1-carboxylate]
[3]
  k2: 39 M⁻¹ s⁻¹

## CN(C)C(=O)O[C@@H]1/C=C/CCNCC1 (racemic) [Compound 1.63, (S,E)-1,2,3,4,7,8-Hexahydroazocin-4-yl dimethylcarbamate]
[1]; [6]
  Time point and release %: 5 min: 100%
